Test results reported in ChEMBL document CHEMBL5625193, “Modulation of taxane binding to tubulin curved and straight conformations by systematic 3'N modification provides for improved microtubule binding, persistent cytotoxicity and in vivo potency” (Eur J Med Chem, 2023).

Key:
[1] = human, mda-mb-231, 24 h
[2] = human, mda-mb-231, 2 h

Drug uptake [1]: Active
Drug uptake [2]: Active
Structure (SMILES): CC(=O)O[C@H]1C(=O)[C@@]2(C)[C@H]([C@H](OC(=O)c3ccccc3)[C@]3(O)C[C@H](OC(=O)[C@H](O)[C@@H](NC(=O)c4ccccc4)c4ccccc4)C(C)=C1C3(C)C)[C@]1(OC(C)=O)CO[C@@H]1C[C@@H]2O [PACLITAXEL]
